system: human PGHS-2 protein expression in LPS stimulated human monocytes; assay: Prostaglandin Endoperoxide Synthase-2 (PGHS-2) assay; assay type: cell-based; details: LPS 50 ng/well overnight, Western blot
Description: The following assay describes a method for determining the inhibitory effects of compounds of Formula (I) on human PGHS-2 protein expression in LPS stimulated human monocytes.
Method: Human peripheral blood monocytes were isolated from buffy coats by centrifugation through Ficoll and Percoll gradients. Cells were seeded at 2×10^6/well in 24 well plates and allowed to adhere for 1 hour in RPMI supplemented with 1% human AB serum, 20 mM L-glutamine, Penicillin-Streptomycin and 10 mM HEPES. Compounds were added at various concentrations and incubated at 37° C. for 10 minutes. LPS was added at 50 ng/well (to induce enzyme expression) and incubated overnight at 37° C. The supernatant was removed and cells washed once in cold PBS. The cells were lysed in […] of cold lysis buffer(50 mM Tris/HCl pH 7.5, 150 mM NaCl, 1% NP40, 0.5% sodium deoxycholate, 0.1% SDS, 300 ug/ml DNAse, 0.1% TRITON X-100, 1 mM PMSF, 1 mM leupeptin, 1 mM pepstatin). The lysate was centrifuged (10,000×g for 10 min. at 4° C.) to remove debris and the soluble fraction was subjected to SDS PAGE. analysis (12% gel). Protein separated on the gel were transferred onto nitrocellulose membrane by electrophoretic means for 2 hours at 60 volts. The membrane was pretreated for one hour in PBS/0.1% Tween 20 with 5% non-fat dry milk. After washing 3 times in PBS/Tween buffer, the membrane was incubated with a 1:2000 dilution of a monospecific antiserum to PGHS-2 or a 1:1000 dilution of an antiserum to PGHs-1 in PBS/Tween with 1% BSA for one hour with continuous shaking. The membrane was washed 3× in PBS/Tween and then incubated with a 1:3000 dilution of horseradish peroxidase conjugated donkey antiserum to rabbit Ig (Amersham) in PBS/Tween with 1% BSA for one hour with continuous shaking. The membrane was then washed 3× in PBS/Tween and the ECL immunodetection system (Amersham) was used to detect the level of expression of prostaglandin endoperoxide synthases-2.

| SMILES | inhibition of LPS induced PGHS-2 protein expression |
| --- | --- |
| C[C@@H]1C[C@H]2[C@@H]3CCC4=CC(=O)C=C[C@]4(C)[C@@]3(F)[C@@H](O)C[C@]2(C)[C@@]1(O)C(=O)CO [Dexamethasone] | active |
| Fc1ccc(-c2nc3n(c2-c2ccncc2)CCS3)cc1 [6-(4-Fluoro-phenyl)-2,3-dihydro-5-(4-pyridinyl)imidazo[2,1-b]thiazole] | active |

same assay, conditions: tested up to 10 uM

| SMILES | inhibition of LPS induced PGHS-2 protein expression |
| --- | --- |
| C[S+]([O-])c1ccc(-c2nc3n(c2-c2ccncc2)CCC3)cc1 (stereo not drawn) [2-(4-Methylsulfinylphenyl)-3-(4-pyridyl)-6,7-dihydro-(5H)-pyrrolo[1,2-a]imidazole] | inactive |
| O=C1CCN(c2ccccc2)N1 [phenidone] | inactive |
| CC(Cc1ccc(O)c(O)c1)C(C)Cc1ccc(O)c(O)c1 (stereo not drawn) [NDGA] | inactive |
| COc1ccc(C2CNC(=O)C2)cc1OC1CCCC1 (stereo not drawn) [rolipram] | inactive |
